Results from patent US5518737A, “Peroral drug delivery system” (priority 1991, dated 1996).
Structures can show the parent of a compound that is named as a salt. Where two headings read alike, the source gives them in different places.

Assays:
[1] = Release of timolol from silicone microspheres (rotating bottle method); format: physicochemical; settings: for release of timolol from silicone microspheres after 1 hour: pH 7.4, 37° C., 100 mg microspheres
Protocol: In silicone microspheres, timolol maleate was used as a model drug and sodium phosphate and Tris buffer as release-controlling adjuvants. Spray-dried drug and adjuvants were either simply mixed as power mixtures or they were spray dried together. To prepare silicone microspheres, the drug (2-20 wt %) and, if present, pH-adjusting agent (0-10 wt %) were mixed with the silicone elastomer (an amine resistant Dow Corning X7-3012 elastomer), and the curing agent was added. One part of the curing agent is mixed in ten parts of the polymer. Vulcanization of the X7-3012 elastomers is based on a platinum catalyzed addition (hydrosilylation) reaction. Two grams of the drug-polymer mixture was dispersed in 35 grams of liquid paraffin using an overhead stirrer at 190 rpm and 22° C. The temperature was raised to 50° C. in 1 hour. After 3 hours, the heating was stopped, and the mixture gradually cooled back to 22° C. […] Microparticles were separated from paraffin by filtration, washed with n-hexane and dried at room temperature. The mean particle size of the microspheres was 150±50 μm (mean±SD) (FIG. 14) and the entrapment efficiency of timolol maleate was 60-75%. Release of timolol from the silicone microspheres was studied using the rotating bottle method (NF XIV) in pH 7.4 phosphate buffer at 37° C. The volume of dissolution medium was 3 ml and the amount of microspheres 100 mg. The release timolol was analysed using reverse phase HPLC at 294 nm.

[2] = Dissolution rate of propranolol hydrochloride by rotating disc method; format: physicochemical; settings: 34° C., 550 mOsm, μ=0.3
Text: Each experiment was repeated five times.

[3] = membranes incubated at pH 7.4 or pH 9.0 propranolol hydrochloride solutions prior to device preparation
Protocol: The thickness of the membranes was 150 μm. Solid propranolol hydrochloride (2 mg) was placed without or with pH-adjusting additives (sodium phosphate/disodium phosphate in different proportions, Tris buffer) (2 mg) on a cut piece of silicone membrane. Another silicone membrane was glued on the former so that the drug and, if present, adjuvant were encapsulated inside two membranes.
Propranolol release from the devices was studied in vitro at pH 7.4 in phosphate buffer from one side of the device in side-by-side diffusion cell. The exposed drug releasing surface was 0.7 cm^2. The released propranolol was analysed using reverse phase HPLC at 254 nm.

physchem = settings: buffer, pH 7.3, aqueous buffer
Protocol: Solubility of propranolol hydrochloride in buffer solutions at 34° C. was investigated by shaking propranolol hydrochloride suspension in the solvent. After equilibration, the saturated solutions were filtered and the concentration of propranolol in the filtrates was assayed by HPLC as described above. […] Each experiment was repeated five times.

release of timolol from silicone microspheres after 1 hour ([1]; 2 wt % drug loading) [µg]	release relative to absence of the pH-adjusting agent ([1]; 2 wt % timolol, 1 wt % Tris)	effect on release rate of adding disodium phosphate ([1]; 2 wt % timolol, 1 wt % disodium phosphate)	release of timolol from silicone microspheres after 1 hour ([1]; 20 wt % drug loading) [µg]	release relative to absence of the pH-adjusting agent ([1]; 20 wt % timolol, 10 wt % Tris)	relationship between the release of timolol and the square root of the time elapsed ([1]; pH 7.4 phosphate buffer, 37° C.)	release of timolol after 1 hour ([1]; timolol and disodium phosphate spray dried together) [µg]	SMILES	dissolution rate, pH 7.3 versus pH 9.4 [2]	dissolution rate ([2]; pH of dissolution medium raised from 1.6 to 7.3)	initial lag time before steady drug release [3]	rates of propranolol release, effect of osmotic pressure (138 mOsm to 950 mOsm at pH 7.4)	rates of propranolol release, effect of osmotic pressure (295 mOsm to 960 mOsm at pH=4.6)	release profile and rate of propranolol release, effect of ionic strength (ionic strength 0.15 to 0.3)	drug release rate, effect of the surrounding pH (pH 1.6, 4.6, 7.3, 9.4)	solubility (physchem) [mg/mL]
27	two times faster	did not affect the release rate	520	two times faster	linear relationship	187	CC(C)(C)NC[C@H](O)COc1nsnc1N1CCOCC1 [timolol, timolol maleate]								
							CC(C)NCC(O)COc1cccc2ccccc12 (stereo not drawn) [propranolol, propranolol hydrochloride]	equal	increased	possible to avoid the initial lag time	remained essentially constant	remained essentially constant	independent of the ionic strength of the dissolution medium	practically unaffected by the surrounding pH	94
